Entries after “also recorded” stand apart in the source; their conditions may differ.
How the values were obtained:
NF-κB = NF-κB electrophoretic mobility shift assay (EMSA), nuclear lysates of treated HT-29 cells; format: cell-based, human; details: 10 μM, 3 and 6 hour incubations
[1] = system: IκB phosphorylation and TNFα-induced NF-κB activation; details: Pierce et al., J Biol Chem 272:21096-103, 1997; cited from earlier work
[2] = system: transiently suspended Caco-2 cells; assay: Apoptosis of transiently suspended cells during readhesion (annexin V assay); format: cell-based, human; details: Caco-2 transiently suspended, treated and allowed to readhere
Method: Single cell suspensions were plated at 100,000 cells per well in 24-well plates in media containing DMSO, BAY 11-7082, BAY 11-7085, or MG-132 for 8-24 hours in an incubator. Alternatively, DMSO, BAY 11-7082, BAY 11-7085, or MG-132 were added to cells that were confluent and adherent for several days. The nonadherent cells were aspirated off with the media and spun for 3 minutes at 2,000 rpm in 15 mL polypropylene tubes. The adherent cells were washed twice with PBS, dispersed in trypsin, and spun down for 3 minutes at 2,000 rpm in 15 mL polypropylene tubes. […] 400 μL of binding buffer was added to each tube and the cells were analyzed by flow cytometry immediately. The percent of apoptosis was determined as the percent of annexin V-positive, propidium iodide-negative cells of the total cells counted.
Since trypsin can activate protease-activated receptor-2 in colon cancer cell lines, which then results in increased cell proliferation, (Darmoul et al., “Initiation of human colon cancer cell proliferation by trypsin acting at protease-activated receptor-2,” Br J Cancer 85:772-9, 2001). NF-κB activation was determined in adherent and confluent DLD-1, HCT-116, Caco-2 and HT-29 cells that were removed from plastic dishes by trypsin or scraping.

[3] = system: transiently suspended HT-29 cells; assay: as above; format: cell-based, human
Method: HT-29 cells that were either transiently suspended with trypsin-EDTA or adherent for three days, were treated at time zero with DMSO or 10-100 μM BAY 11-7085. The percent of apoptotic cells was determined using the annexin V flow cytometry assay and graphed versus the dose of BAY 11-7085. FIG. 4B are photographs showing DLD-1, FIG. 4C are photographs showing HCT-116, and FIG. 4D are photographs showing HT-29 cells that were transiently suspended in trypsin-EDTA and allowed to readhere to glass coverslips for 1-24 hours. The cells were fixed and immunostained with an NF-κB p65 subunit monoclonal antibody.
The transiently suspended cells were lysed and allowed to bind to DNA oligonucleotides, containing the NF-κB consensus binding site, that were immobilized to 96-well plates. NF-κB protein bound to the oligonucleotides was detected by an antibody to the p65 subunit that only recognized p65 that is bound to DNA. The positive control was HeLa cells that were stimulated with TNFα. A control was performed using excess free NF-κB oligonucleotides (Competitor). […] NF-κB binding activity was determined by the TransAM assay as in FIG. 5A. […] The data shown represent typical results of three separate experiments. […] An immunoblot for COX-2 was performed.
The percentage of apoptotic cells was determined using the annexin V assay. The data points represent the averages of three experiments; bars, +−.SE. E. DLD-1 and F. HT-29 cells were transduced with an adenovirus containing the IκB super-repressor construct. After 3 days, the cells were transiently suspended and allowed to readhere in the presence of subapoptotic concentrations of BAY 11-7085 or DMSO (vehicle) for 8 hours. The data are expressed as fractions of cells surviving compared with the controls (no adenovirus) and were quantitatively determined by staining the remaining adherent cells with crystal violet.
(§1) Single cell suspensions were plated at 100,000 cells per well in 24-well plates in media containing DMSO, BAY 11-7082, BAY 11-7085, or MG-132 for 8-24 hours in an incubator. Alternatively, DMSO, BAY 11-7082, BAY 11-7085, or MG-132 were added to cells that were confluent and adherent for several days. The nonadherent cells were aspirated off with the media and spun for 3 minutes at 2,000 rpm in 15 mL polypropylene tubes. The adherent cells were washed twice with PBS, dispersed in trypsin, and spun down for 3 minutes at 2,000 rpm in 15 mL polypropylene tubes. The nonadherent and adherent cells were resuspended in 1× binding buffer (10 mM HEPES/NaOH, pH 7.4, 140 mM NaCl, and 2.5 mM CaCl2) to a final concentration of 10^6 cells/mL. 100 μL of the cell solution were transferred to a 5 mL culture tube and incubated with 5 μL of annexin V-FITC-conjugated monoclonal antibody (Pharmingen) and 10 μl, of propidium iodide (from a 50 μg/mL stock solution made in PBS) in the dark at 25° C. for 15 minutes. 400 μL of binding buffer was added to each tube and the cells were analyzed by flow cytometry immediately. The percent of apoptosis was determined as the percent of annexin V-positive, propidium iodide-negative cells of the total cells counted.
Various concentrations of BAY 11-7085 were added to HT-29 cells that were transiently suspended in trypsin-PBS for approximately 15 minutes before replating. The transiently suspended cells were quickly allowed to readhere in order to prevent anoikis. Alternatively, BAY 11-7085 was added to adherent HT-29 cell monolayers.

adherent HT-29 cells = assay: Annexin V-FITC apoptosis assay, adherent cells; format: cell-based, human
Text: FIG. 3 is a group of graphs that show NF-κB inhibitors cause apoptosis of colon cancer cells. […] The data points represent the average percent of annexin V-positive, propidium iodide-negative cells (of the total cells counted) from triplicate experiments. The error bars represent the standard error of the means. […] The results shown are a graphic representation of individual flow cytometry results expressed as the percentage of cells that were annexin V-positive of those that excluded propidium iodide. […] An immunoblot of the lysates for cleaved PARP was performed. Each lane represents equal total protein concentrations. […] The cells were allowed to adhere to plastic dishes for 1 hour after which they were washed gently in PBS and stained with crystal violet. The crystal violet stained cells were solubilized in deoxycholate and the absorbance detected in a spectrophotometer at 590 nm. The adherent cells were expressed as a fraction of the controls. Each data point represents the average of triplicate experiments and the error bars the standard errors of the means.
The data points represent the means of triplicate experiments and the error bars the standard errors of the means. […] The percent of apoptotic cells was then determined by the annexin V assay. […] The results shown are typical of two separate experiments. […] Immunoblots were performed for c-IAP-2, TRAF-1, TRAF-2, and FLIP. All lanes contain equal total protein.
as §1

CC(C)(C)c1ccc(S(=O)(=O)/C=C/C#N)cc1 [BAY 11-7085, (2E)-3-[4-(tertiarybutylphenyl)sulfonyl]-2-propenenitrile]
inhibition of NF-κB activity (EMSA) (NF-κB): more profound inhibition of NF-κB activity
IκB phosphorylation and TNFα-induced NF-κB activation [1]: inhibit IκB phosphorylation and TNFα-induced NF-κB activation
BAY 11-7085-induced apoptosis during readhesion [2]: moderate increase
BAY 11-7085-induced apoptosis during readhesion ([3]; HT-29 transiently suspended, treated and allowed to readhere, 8 hours): showed the same propensity for BAY 11-7085-induced apoptosis
apoptosis of transiently suspended HT-29 cells ([3]; all concentrations tested (10-100 μM), cells suspended in trypsin-PBS then replated): caused a significant increase in apoptosis
apoptotic cells among cells that remained adherent (adherent HT-29 cells; HT-29 treated with increasing concentrations of BAY 11-7085, adherent fraction): only a minority of the adherent cells was apoptotic
apoptotic cells among cells that became nonadherent (adherent HT-29 cells; HT-29 treated with increasing concentrations of BAY 11-7085, nonadherent fraction): the majority of nonadherent cells were apoptotic; also recorded: predominantly apoptotic
level of apoptosis (annexin V-positive, propidium iodide-negative cells) (adherent HT-29 cells; adherent HT-29, 24 hours, BAY compounds at doses up to 20, MG-132 20 μM): relatively greater for MG-132 than BAY 11-7085; also recorded: caused an increase in the level of apoptosis
apoptosis of adherent HT-29 cell monolayers (adherent HT-29 cells; even the highest doses (10-100 μM), compared with transiently suspended cells): only a relatively small degree of apoptosis
